Source: ChEMBL document CHEMBL2311317, “Organosilicon molecules with medicinal applications” (J Med Chem, 2013)

Target: Matrix protein 2 (Influenza A virus (A/Udorn/307/1972(H3N2)), UniProt P0DOF8, V27A)

Row | Structure (SMILES) | IC50 [µM]
1 | NC1CC[Si]2(CCCC2)CC1 | 96.3
2 | NC1CCC2(CCCC2)CC1 | 319
